In the supplement of paper PMC10307832:

Tests used:
[1] = compound: CC(C)C[C@@H](C(=O)N[C@H](C(=O)OC1CCCC1)c1ccccc1)[C@H](O)C(=O)NO [Tosedostat] + NC(=O)Nc1cc(-c2cccc(F)c2)sc1C(=O)N[C@H]1CCCNC1 [AZD7762] (partner 0.2 µM); experiment: relative viability (nuclei count vs DMSO), 5 days (fraction); higher = more cells survive
Outline: (§1)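 Five library-drug doses in √10 steps were combined with a fixed anchor-drug dose, or a single drug was given alone, by pin tool to lung cancer cell lines in 1536-well plates the day after seeding. Nuclei were stained and counted after 5 days. Relative viability is the nuclei count in treated wells over that in vehicle wells, taken as the median of duplicate plates.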

[2] = compound: CC(C)C[C@@H](C(=O)N[C@H](C(=O)OC1CCCC1)c1ccccc1)[C@H](O)C(=O)NO [Tosedostat] + CC(=O)Nc1cccc(-n2c(=O)n(C3CC3)c(=O)c3c(Nc4ccc(I)cc4F)n(C)c(=O)c(C)c32)c1 [Trametinib] (partner 0.02 µM); experiment: as above
Outline: as §1

Cell Line	relative viability ([1]; first compound 0.02 µM)	relative viability ([1]; first compound 0.06325 µM)	relative viability ([1]; first compound 0.2 µM)	relative viability ([1]; first compound 0.6325 µM)	relative viability ([1]; first compound 2 µM)	relative viability ([2]; first compound 0.02 µM)	relative viability ([2]; first compound 0.06325 µM)	relative viability ([2]; first compound 0.2 µM)	relative viability ([2]; first compound 0.6325 µM)	relative viability ([2]; first compound 2 µM)
NCI-H1915	0.685	0.681	0.785	0.612	0.54	0.295	0.313	0.292	0.3	0.283
NCI-H1944	0.659	0.494	0.501	0.437	0.453	0.422	0.396	0.4	0.395	0.422
NCI-H1975	0.768	0.776	0.7	0.654	0.608	0.35	0.401	0.453	0.359	0.344
NCI-H1993	0.678	0.64	0.741	0.556	0.493	0.501	0.61	0.535	0.498	0.504
NCI-H2085	–	1.03	1.05	0.973	0.965	–	0.436	0.677	0.403	0.637
NCI-H2087	1.52	1.31	1.22	1.2	1.24	0.181	0.17	0.172	0.228	0.132
NCI-H2126	0.99	1.03	0.919	0.974	0.953	0.493	0.59	0.568	0.584	0.481
NCI-H2170	0.85	0.94	0.948	0.976	0.892	0.945	0.971	0.925	0.894	0.915
